In ChEMBL document CHEMBL2074574, “The interaction and transport of beta-lactam antibiotics with the cloned rat renal organic anion transporter 1” (J Pharmacol Exp Ther, 1999) one finds Activity and Ki data, which are given here for 14 molecules.

One may read the Ki as the dissociation constant of the complex between target and ligand, obtained from inhibition or displacement.

In series [1] the target is T1, Solute carrier family 22 member 6 (Rattus norvegicus, UniProt O35956).
T1 sequence (O35956 whole entry): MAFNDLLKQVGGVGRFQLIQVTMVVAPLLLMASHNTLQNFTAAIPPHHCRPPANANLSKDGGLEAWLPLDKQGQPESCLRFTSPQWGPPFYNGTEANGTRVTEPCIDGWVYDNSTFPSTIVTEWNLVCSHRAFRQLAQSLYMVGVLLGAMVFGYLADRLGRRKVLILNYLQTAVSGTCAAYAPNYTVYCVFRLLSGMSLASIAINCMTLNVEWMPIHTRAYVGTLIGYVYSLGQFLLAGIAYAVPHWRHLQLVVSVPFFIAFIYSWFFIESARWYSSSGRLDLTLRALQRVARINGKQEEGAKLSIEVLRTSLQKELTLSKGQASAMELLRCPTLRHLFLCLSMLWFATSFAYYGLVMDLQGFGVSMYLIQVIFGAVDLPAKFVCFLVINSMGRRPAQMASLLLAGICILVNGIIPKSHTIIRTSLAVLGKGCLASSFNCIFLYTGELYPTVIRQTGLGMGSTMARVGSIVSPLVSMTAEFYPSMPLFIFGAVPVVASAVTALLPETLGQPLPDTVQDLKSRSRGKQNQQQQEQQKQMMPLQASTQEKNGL
The series is described as follows: TP_TRANSPORTER: inhibition of PAH uptake (PAH: 2 uM, Amoxicillin: 2000 uM) in Xenopus laevis oocytes. It is filed as functional, cell-based. The settings on record: oocyte.

Series [2] deals with T1, Solute carrier family 22 member 6. Briefly: TP_TRANSPORTER: inhibition of PAH uptake (PAH: 2 uM, Cefsulodin: 2000 uM) in Xenopus laevis oocytes. It is filed as functional, cell-based. As to conditions: oocyte.
For series [3] the target is unchanged. Briefly: TP_TRANSPORTER: inhibition of PAH uptake (PAH: 2 uM, Ceftazidime: 2000 uM) in Xenopus laevis oocytes. It is filed as functional, cell-based. The settings on record: oocyte.
For series [4] the target is unchanged. Briefly: TP_TRANSPORTER: inhibition of PAH uptake in Xenopus laevis oocytes. The series is classed as functional, cell-based, Oocyte.
For series [5] the target is unchanged. Briefly: TP_TRANSPORTER: inhibition of PAH uptake (PAH: 2 uM, Chloramphenicol: 2000 uM) in Xenopus laevis oocytes. The series is classed as functional, cell-based. As to conditions: oocyte.
For series [6] the target is unchanged. The series is described as follows: TP_TRANSPORTER: inhibition of PAH uptake (PAH: 2 uM, Cinoxacin: 2000 uM) in Xenopus laevis oocytes. As to conditions: oocyte. The series is classed as functional, cell-based.
Series [7] shares this target. The series is described as follows: TP_TRANSPORTER: inhibition of PAH uptake (PAH: 2 uM, Cloxacillin: 2000 uM) in Xenopus laevis oocytes. It is filed as functional, cell-based. As to conditions: oocyte.
The target is the same in series [8]. The series is described as follows: TP_TRANSPORTER: inhibition of PAH uptake (PAH: 2 uM, Nafcillin: 2000 uM) in Xenopus laevis oocytes. The series is classed as functional, cell-based. As to conditions: oocyte.
Series [9] shares this target. The series is described as follows: TP_TRANSPORTER: inhibition of PAH uptake (PAH: 2 uM, Norfloxacin: 2000 uM) in Xenopus laevis oocytes. It is filed as functional, cell-based. The settings on record: oocyte.
For series [10] the target is unchanged. Briefly: TP_TRANSPORTER: inhibition of PAH uptake (PAH: 2 uM, OFLX: 2000 uM) in Xenopus laevis oocytes. It is filed as functional, cell-based. As to conditions: oocyte.
For series [11] the target is unchanged. The series is described as follows: TP_TRANSPORTER: inhibition of PAH uptake (PAH: 2 uM, Piperacillin: 2000 uM) in Xenopus laevis oocytes. The series is classed as functional, cell-based. As to conditions: oocyte.
For series [12] the target is unchanged. Briefly: TP_TRANSPORTER: inhibition of PAH uptake (PAH: 2 uM, Streptomycin: 2000 uM) in Xenopus laevis oocytes. The series is classed as functional, cell-based. The settings on record: oocyte.
Series [13] shares this target. The series is described as follows: TP_TRANSPORTER: inhibition of PAH uptake (PAH: 2 uM, Vancomycin: 2000 uM) in Xenopus laevis oocytes. It is filed as functional, cell-based. As to conditions: oocyte.
Series [14] shares this target. Briefly: TP_TRANSPORTER: inhibition of PAH uptake (PAH: 2 uM, Gentamicin: 2000 uM) in Xenopus laevis oocytes. The series is classed as functional, cell-based. The settings on record: oocyte.

For `CC1(C)S[C@@H]2[C@H](NC(=O)[C@H](N)c3ccc(O)cc3)C(=O)N2[C@H]1C(=O)O` [AMOXICILLIN], in [1], the Activity entry is “inhibitor [(at a rough estimate) 20 % of control]”.

As to `NC(=O)c1cc[n+](CC2=C(C(=O)O)N3C(=O)[C@@H](NC(=O)[C@@H](c4ccccc4)S(=O)(=O)[O-])[C@H]3SC2)cc1` [CEFSULODIN], in series [2], the Activity result was “inhibitor [(at a rough estimate) 10 % of control]”.

For `CC(C)(O/N=C(\C(=O)N[C@@H]1C(=O)N2C(C(=O)[O-])=C(C[n+]3ccccc3)CS[C@H]12)c1csc(N)n1)C(=O)O` [CEFTAZIDIME], the Activity entry in series [3] is “inhibitor [(at a rough estimate) 45 % of control]”.

Take `CC1=C(C(=O)O)N2C(=O)[C@@H](NC(=O)[C@H](N)c3ccccc3)[C@H]2SC1` [CEPHALEXIN ANHYDROUS]: in series [4], the affinity corresponds to a Ki of 2310 µM.

`O=C(N[C@H](CO)[C@H](O)c1ccc([N+](=O)[O-])cc1)C(Cl)Cl` [CHLORAMPHENICOL]: the Activity entry in series [5] is “inhibitor [(at a rough estimate) 75% of control]”.

Regarding `CCn1nc(C(=O)O)c(=O)c2cc3c(cc21)OCO3` [CINOXACIN], in [6], the Activity entry was “inhibitor [(at a rough estimate) 5 % of control]”.

For the molecule `Cc1onc(-c2ccccc2Cl)c1C(=O)N[C@@H]1C(=O)N2[C@@H]1SC(C)(C)[C@@H]2C(=O)O` [CLOXACILLIN], the Activity entry in [7] is “inhibitor [(at a rough estimate) 5 % of control]”.

For the molecule `CCOc1ccc2ccccc2c1C(=O)N[C@@H]1C(=O)N2[C@@H]1SC(C)(C)[C@@H]2C(=O)O` [NAFCILLIN], the Activity entry in [8] was “inhibitor [(at a rough estimate) <5 % of control]”.

`CCn1cc(C(=O)O)c(=O)c2cc(F)c(N3CCNCC3)cc21` [NORFLOXACIN]: the Activity entry in series [9] was “is not an inhibitor [-]”.

With `CC1COc2c(N3CCN(C)CC3)c(F)cc3c(=O)c(C(=O)O)cn1c23` (centres undefined) [OFLOXACIN], the Activity entry in [10] was “is not an inhibitor [-]”.

For `CCN1CCN(C(=O)N[C@@H](C(=O)N[C@@H]2C(=O)N3[C@@H]2SC(C)(C)[C@@H]3C(=O)O)c2ccccc2)C(=O)C1=O` [PIPERACILLIN], the Activity entry in series [11] was “inhibitor [(at a rough estimate) 5 % of control]”.

As for `[H]/N=C(/N)N[C@H]1[C@H](O)[C@@H](O)[C@H](O[C@@H]2O[C@@H](C)[C@](O)(C=O)[C@H]2O[C@@H]2O[C@@H](CO)[C@H](O)[C@@H](O)[C@@H]2NC)[C@@H](N/C(N)=N\[H])[C@@H]1O` [STREPTOMYCIN], in [12], the Activity entry is “is not an inhibitor [-]”.

Regarding `CN[C@H](CC(C)C)C(=O)N[C@H]1C(=O)N[C@@H](CC(N)=O)C(=O)N[C@H]2C(=O)N[C@H]3C(=O)N[C@H](C(=O)N[C@H](C(=O)O)c4cc(O)cc(O)c4-c4cc3ccc4O)[C@H](O)c3ccc(c(Cl)c3)Oc3cc2cc(c3O[C@@H]2O[C@H](CO)[C@@H](O)[C@H](O)[C@H]2O[C@H]2C[C@](C)(N)[C@H](O)[C@H](C)O2)Oc2ccc(cc2Cl)[C@H]1O` [VANCOMYCIN], in series [13], the Activity entry was “is not an inhibitor [-]”.

For GENTAMICIN, the Activity entry in series [14] was “is not an inhibitor [-]”.
